Where two headings read alike, the source gives them in different places. Values belong to the molecule of their own block, whether it stands above or below them. Where a SMILES comes first, the peptide text is derived from it. The star is where a group is joined. Cbz = O=C(OCc1ccccc1)*
Key:
CRBN-DDB1 complex [1] = biological target: T1, CRBN-DDB1 complex (Homo sapiens, UniProt Q96SW2); assay: fluorescence polarization (FP) assay, binding with the CRBN-DDB1 complex; settings: single concentration of 1 μM; for binding to CRBN-DDB1 complex in FP assay (relative binding affinity): tested three times, conditions adjusted to around 84% of maximum signal for 1 μM lenalidomide
Experimental: All analogs were tested at a single concentration of 1 μM three times.

CRBN-DDB1 complex [2] = biological target: T1, CRBN-DDB1 complex; assay: as above
[3] = stability in phosphate buffer with different pHs; assay type: physicochemical; settings: for PB7.4, percent compound remaining: phosphate buffer pH 7.4, after 24 h, 37° C.
[4] = stability in human plasma (hP); assay type: in vitro ADME; settings: after 4.0 h
Description: (§1) Under acidic conditions, all compounds are very stable.

[5] = stability in phosphate buffer with different pHs; assay type: physicochemical; settings: phosphate buffer pH 1.0, after 24 h
Description: as §1

[6] = stability in human liver microsomes (hLM); assay type: in vitro ADME; settings: after 0.5 h
BRD4 in MV4; 11 cells = BRD4 in MV4; 11 cells (Homo sapiens, UniProt O60885); assay: Western blot of BRD4 in MV4; 11 cells (time course, dose response, mechanism); assay type: cell-based; settings: for effect of 1 h pretreatment on BRD4 degradation induced by 13: pretreated 1 h, then 13 for 3 h
Description: We next verified the mechanism of action of degrader 13 (FIGS. 8G-8H).

MV4; 11 cells [7] = assay: AlamarBlue cell viability; assay type: cell-based, human; settings: 72 h
Experimental: (§2) FIGS. 9A-9D. Functional studies of the PROTACs including anti-proliferation, apoptosis, G1 phase arrest, and reduced population in S phase. (FIG. 9A) AlamarBlue™ Cell Viability. […] (FIG. 9B) MV4; 11 cells were treated by indicated dosage of 13 for 48 h followed by flow cytofluorimetric cell cycle analysis. (FIGS. 9C and 9D) MV4; 11 cells were treated by indicated dosage of 13 for 48 h followed by flow cytofluorimetric apoptosis analyses.
AlamarBlue Cell Viability Cells were seeded in a 96-well plate at a density of 5000-10000 cells in 100 μl media per well and treated with DMSO control or test compounds at indicated doses. After incubated in CO2 incubator for 72 hours, cells were treated with 10 μL AlamarBlue solution ([…])). Fluorescence was measured in a plate reader with an excitation wavelength at 530-560 nm and emission wavelength at 590 nm. The fluorescence was normalized to the DMSO-treated cells, and the IC50 was calculated using GraphPad Prism 9 software.

MV4; 11 cells [8] = assay: flow cytofluorimetric cell cycle analysis; assay type: cell-based, human; settings: 48 h
Experimental: as §2
(§3) Flow Cytometry Cell apoptosis and cell cycle were detected by Attune Flow cytometer (Thermo Fisher). Cells were seeded in a 6-well plate and treated with the indicated concentrations of compounds for 48 h. For samples for cell apoptosis detection, cells were harvested and incubated in Annexin V-FITC and PI reagents each for 15 minutes (Annexin V-FITC apoptosis detection kit, Invitrogen). For the samples for cell cycle detection, cells were fixed in 70% cold ethanol overnight and stained with PI (500 μg/ml) for 15 minutes. Flow data were analyzed using Flowjo software.

MV4; 11 cells [9] = assay: flow cytofluorimetric apoptosis analysis; assay type: cell-based, human; settings: 48 h
Experimental: as §2, §3

caspase 3 cleavage = assay: Western blot of caspase 3 and cleaved caspase 3 in MV4; 11 cells; settings: at 10 nm to 10 µM concentrations
[10] = in-vivo in humans; cited from earlier work
[11] = in human blood; cited from earlier work
[12] = phosphate buffer pH 8.8, after 24 h

T1 sequence (Q96SW2 whole entry): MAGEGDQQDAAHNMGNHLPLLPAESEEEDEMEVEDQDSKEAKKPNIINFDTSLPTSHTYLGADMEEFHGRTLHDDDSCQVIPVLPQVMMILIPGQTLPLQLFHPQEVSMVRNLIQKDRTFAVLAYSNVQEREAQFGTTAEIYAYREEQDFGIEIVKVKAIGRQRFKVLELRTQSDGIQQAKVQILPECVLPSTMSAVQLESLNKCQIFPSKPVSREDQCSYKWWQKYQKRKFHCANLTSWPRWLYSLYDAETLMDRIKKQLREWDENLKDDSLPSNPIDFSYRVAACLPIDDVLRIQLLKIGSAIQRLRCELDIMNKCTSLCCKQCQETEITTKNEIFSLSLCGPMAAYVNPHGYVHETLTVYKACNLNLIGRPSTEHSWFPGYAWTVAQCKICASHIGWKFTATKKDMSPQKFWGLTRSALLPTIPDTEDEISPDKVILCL
T1 sequence (Q16531 2-1140 partner limits assumed): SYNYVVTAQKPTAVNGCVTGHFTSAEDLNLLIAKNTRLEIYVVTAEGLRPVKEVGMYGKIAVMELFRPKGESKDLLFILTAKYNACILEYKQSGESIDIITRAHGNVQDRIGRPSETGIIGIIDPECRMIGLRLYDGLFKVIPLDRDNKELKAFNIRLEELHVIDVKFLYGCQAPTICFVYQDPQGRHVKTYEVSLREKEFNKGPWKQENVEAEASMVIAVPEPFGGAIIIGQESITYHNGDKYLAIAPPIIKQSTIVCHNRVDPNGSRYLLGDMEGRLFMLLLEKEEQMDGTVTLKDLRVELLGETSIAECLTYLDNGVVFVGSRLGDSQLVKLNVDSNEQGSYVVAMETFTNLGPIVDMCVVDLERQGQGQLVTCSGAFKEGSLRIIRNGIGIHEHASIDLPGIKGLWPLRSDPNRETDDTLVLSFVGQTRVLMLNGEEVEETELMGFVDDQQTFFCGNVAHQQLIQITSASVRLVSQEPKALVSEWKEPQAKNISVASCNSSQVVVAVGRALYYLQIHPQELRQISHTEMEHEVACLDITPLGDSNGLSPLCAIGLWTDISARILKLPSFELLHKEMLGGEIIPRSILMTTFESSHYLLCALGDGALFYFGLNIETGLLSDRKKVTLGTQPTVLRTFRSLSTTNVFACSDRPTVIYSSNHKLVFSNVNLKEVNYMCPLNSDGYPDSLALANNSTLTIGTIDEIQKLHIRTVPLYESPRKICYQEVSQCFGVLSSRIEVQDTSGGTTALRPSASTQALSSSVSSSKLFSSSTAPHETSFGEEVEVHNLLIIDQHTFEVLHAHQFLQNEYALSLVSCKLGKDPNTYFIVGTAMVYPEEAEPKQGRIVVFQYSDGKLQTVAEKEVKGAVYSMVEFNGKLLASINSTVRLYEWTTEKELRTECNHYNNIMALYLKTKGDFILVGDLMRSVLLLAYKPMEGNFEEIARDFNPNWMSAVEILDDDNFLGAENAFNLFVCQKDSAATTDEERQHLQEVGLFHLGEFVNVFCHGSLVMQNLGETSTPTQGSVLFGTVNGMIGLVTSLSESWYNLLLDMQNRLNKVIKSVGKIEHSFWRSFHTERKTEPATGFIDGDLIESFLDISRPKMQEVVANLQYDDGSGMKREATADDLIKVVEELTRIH

binding to CRBN-DDB1 complex in FP assay (relative binding affinity) (CRBN-DDB1 complex [1]): 81%
SMILES: Cc1ccc(O)cc1N1CCC(=O)NC1=O [Compound 7A, 1-(5-hydroxy-2-methylphenyl)dihydropyrimidine-2,4(1H,3H)-dione]

binding to CRBN-DDB1 complex in FP assay (relative binding affinity) (CRBN-DDB1 complex [1]): 70%
Kd (CRBN-DDB1 complex [2]; FP assay): 170 nM
SMILES: Cc1ccc(Oc2ccc(C=O)cc2)cc1N1CCC(=O)NC1=O [Compound 15A]

binding to CRBN-DDB1 complex in FP assay (relative binding affinity) (CRBN-DDB1 complex [1]): 33%
SMILES: O=Cc1ccc(Oc2cccc(N3CCC(=O)NC3=O)c2)cc1 [Compound 15B]

binding to CRBN-DDB1 complex in FP assay (relative binding affinity) (CRBN-DDB1 complex [1]): 21%
SMILES: Cc1c(Oc2ccc(C=O)cc2)cccc1N1CCC(=O)NC1=O [Compound 15C]

binding to CRBN-DDB1 complex in FP assay, in words (CRBN-DDB1 complex [1]): slightly weaker than 15A
SMILES: Cc1ccc(Oc2ccccc2)cc1N1CCC(=O)NC1=O [Compound 15D]

binding to CRBN-DDB1 complex in FP assay, in words (CRBN-DDB1 complex [1]): remain relatively high binding affinity
SMILES: COC(=O)c1cccc(Nc2ccc(C)c(N3CCC(=O)NC3=O)c2)c1 [Compound 16A]

binding to CRBN-DDB1 complex in FP assay, in words (CRBN-DDB1 complex [1]): remain relatively high binding affinity
SMILES: Cc1ccc(Nc2ccccc2)cc1N1CCC(=O)NC1=O [Compound 16B]

The next lines start with the molecule.

SMILES: O=C1CCN(c2ccccc2O)C(=O)N1 [Compound 3A, 1-(2-hydroxyphenyl)dihydropyrimidine-2,4(1H,3H)-dione]
binding to CRBN-DDB1 complex in FP assay, in words (CRBN-DDB1 complex [1]): almost completely lost the binding affinity

SMILES: Cc1ccccc1N1CCC(=O)NC1=O [Compound 3B, 1-(o-tolyl)dihydropyrimidine-2,4(1H,3H)-dione]
binding to CRBN-DDB1 complex in FP assay (relative binding affinity) (CRBN-DDB1 complex [1]): 35%
increase of affinity by ortho-Me relative to parent PDHU 2 (CRBN-DDB1 complex [2]; FP assay Kd): about 2.5 times

SMILES: COc1ccccc1N1CCC(=O)NC1=O [Compound 3C, 1-(2-methoxyphenyl)dihydropyrimidine-2,4(1H,3H)-dione]
binding to CRBN-DDB1 complex in FP assay, in words (CRBN-DDB1 complex [1]): decreased the binding

SMILES: CCc1ccccc1N1CCC(=O)NC1=O [Compound 3D, 1-(2-ethylphenyl)dihydropyrimidine-2,4(1H,3H)-dione]
binding to CRBN-DDB1 complex in FP assay (relative binding affinity) (CRBN-DDB1 complex [1]): 29%

SMILES: O=C1CCN(c2ccccc2Cl)C(=O)N1 [Compound 3E, 1-(2-chlorophenyl)dihydropyrimidine-2,4(1H,3H)-dione]
binding to CRBN-DDB1 complex in FP assay (relative binding affinity) (CRBN-DDB1 complex [1]): 36%

SMILES: O=C1CCN(c2cccc(O)c2)C(=O)N1 [Compound 4A, 1-(3-hydroxyphenyl)dihydropyrimidine-2,4(1H,3H)-dione]
binding to CRBN-DDB1 complex in FP assay (relative binding affinity) (CRBN-DDB1 complex [1]): 57%

SMILES: COc1cccc(N2CCC(=O)NC2=O)c1 [Compound 4C, 1-(3-methoxyphenyl)dihydropyrimidine-2,4(1H,3H)-dione]
binding to CRBN-DDB1 complex in FP assay (relative binding affinity) (CRBN-DDB1 complex [1]): 33%

SMILES: CC(C)(C)OC(=O)NCC#Cc1cccc(N2CCC(=O)NC2=O)c1 [Compound 4F, tert-butyl (3-(3-(2,4-dioxotetrahydropyrimidin-1(2H)-yl)phenyl)prop-2-yn-1-yl)carbamate]
binding to CRBN-DDB1 complex in FP assay (relative binding affinity) (CRBN-DDB1 complex [1]): 56%

SMILES: CC(C)(C)OC(=O)COc1cccc(N2CCC(=O)NC2=O)c1 [Compound 4K, tert-butyl 2-(3-(2,4-dioxotetrahydropyrimidin-1(2H)-yl)phenoxy)acetate]
binding to CRBN-DDB1 complex in FP assay (relative binding affinity) (CRBN-DDB1 complex [1]): 44%

SMILES: O=C1CCN(c2ccc(O)cc2)C(=O)N1 [Compound 5A, 1-(4-hydroxyphenyl)dihydropyrimidine-2,4(1H,3H)-dione]
binding to CRBN-DDB1 complex in FP assay, in words (CRBN-DDB1 complex [1]): did not improve the binding as much as those on the meta-positions
binding to CRBN-DDB1 complex in FP assay (relative binding affinity) (CRBN-DDB1 complex [1]): 38%

SMILES: CC(C)(C)OC(=O)COc1ccc(N2CCC(=O)NC2=O)cc1 [Compound 5K, tert-butyl 2-(4-(2,4-dioxotetrahydropyrimidin-1(2H)-yl)phenoxy)acetate]
binding to CRBN-DDB1 complex in FP assay, in words (CRBN-DDB1 complex [1]): did not improve the binding as much as those on the meta-positions

SMILES: Cc1c(C#CCNC(=O)OC(C)(C)C)cccc1N1CCC(=O)NC1=O [Compound 6F, tert-butyl (3-(3-(2,4-dioxotetrahydropyrimidin-1(2H)-yl)-2-methylphenyl)prop-2-yn-1-yl)carbamate]
PB7.4, percent compound remaining [3]: >99%
PB8.8, percent compound remaining [3, 12]: 93%
hP, percent compound remaining [4]: 97%
PB1.0, percent compound remaining [5]: >99%
hLM, percent compound remaining [6]: 87%

SMILES: Cc1c(OCC(=O)N2CCCCC2)cccc1N1CCC(=O)NC1=O [Compound 9, 1-(2-methyl-3-(2-oxo-2-(piperidin-1-yl)ethoxy)phenyl)dihydropyrimidine-2,4(1H,3H)-dione]
PB7.4, percent compound remaining [3]: >99%
PB8.8, percent compound remaining [3, 12]: 95%
effect of 1 h pretreatment on BRD4 degradation induced by 13 (BRD4 in MV4; 11 cells): abolished the BRD4 degradation induced by 13
PB1.0, percent compound remaining [5]: >99%
anti-proliferation activity, in words (MV4; 11 cells [7]): did not show any anti-proliferation activity at up to 100 μM
hLM, percent compound remaining [6]: 85%

SMILES: CCNC(=O)COc1cccc(N2CCC(=O)NC2=O)c1C [Compound 10, 2-(3-(2,4-dioxotetrahydropyrimidin-1(2H)-yl)-2-methylphenoxy)-N-ethylacetamide]
PB7.4, percent compound remaining [3]: >99%
PB8.8, percent compound remaining [3, 12]: 95%
PB1.0, percent compound remaining [5]: >99%
hLM, percent compound remaining [6]: 100%

SMILES: CC(=O)NCCC#Cc1cccc(N2CCC(=O)NC2=O)c1C [Compound 11, N-(4-(3-(2,4-dioxotetrahydropyrimidin-1(2H)-yl)-2-methylphenyl)but-3-yn-1-yl)acetamide]
PB7.4, percent compound remaining [3]: >99%
PB8.8, percent compound remaining [3, 12]: 90%
PB1.0, percent compound remaining [5]: >99%
hLM, percent compound remaining [6]: 90%

SMILES: Cc1sc2c(c1C)C(c1ccc(Cl)cc1)=N[C@@H](CC(=O)NC1CCN(C(=O)COc3cccc(N4CCC(=O)NC4=O)c3C)CC1)c1nnc(C)n1-2 [Compound 13, (S)-2-(4-(4-chlorophenyl)-2,3,9-trimethyl-6H-thieno[3,2-f][1,2,4]triazolo[4,3-a][1,4]diazepin-6-yl)-N-(1-(2-(3-(2,4-dioxotetrahydropyrimidin-1(2H)-yl)-2-methylphenoxy)acetyl)piperidin-4-yl)acetamide]
cell cycle effect, in words (MV4; 11 cells [8]): induce G1 phase arrest, decrease the cell population in S phase
cell apoptosis, in words (MV4; 11 cells [9]): induce cell apoptosis in a dose-dependent manner
caspase 3 cleavage, in words (caspase 3 cleavage): successful in inducing caspase 3 cleavage

SMILES: Cc1sc2c(c1C)C(c1ccc(Cl)cc1)=N[C@@H](CC(=O)NC1CCN(C(=O)COc3cccc(N4CCC(=O)N(C)C4=O)c3C)CC1)c1nnc(C)n1-2 [Compound 13NT, (S)-2-(4-(4-chlorophenyl)-2,3,9-trimethyl-6H-thieno[3,2-f][1,2,4]triazolo[4,3-a][1,4]diazepin-6-yl)-N-(1-(2-(2-methyl-3-(3-methyl-2,4-dioxotetrahydropyrimidin-1(2H)-yl)phenoxy)acetyl)piperidin-4-yl)acetamide]
BRD4 degradation activity, in words (BRD4 in MV4; 11 cells; several concentrations, 24 h): No degradation activity of BRD4 was observed

SMILES: Cc1sc2c(c1C)C(c1ccc(Cl)cc1)=N[C@@H](CC(=O)OC(C)(C)C)c1nnc(C)n1-2 [JQ1, reference compound]
anti-proliferation activity, in words (MV4; 11 cells [7]): weaker anti-proliferation activity than 13, but higher activity than compound 13NT

SMILES: Nc1cccc2c1CN(C1CCC(=O)NC1=O)C2=O (stereo not shown) [Lenalidomide, lenalidomide, reference compound]
PB7.4, percent compound remaining [3]: 39%
PB8.8, percent compound remaining ([3]; phosphate buffer pH 8.8, after 2 h): 20%
PB8.8, percent compound remaining [3, 12]: 0%
hP, percent compound remaining [4]: 62%
PB1.0, percent compound remaining [5]: >99%
hLM, percent compound remaining [6]: 89%

SMILES: CC(C)C[C@@H](C=O)NC(=O)[C@H](CC(C)C)NC(=O)[C@H](CC(C)C)NC(=O)OCc1ccccc1 [MG132, reference compound] (Cbz-Leu-Leu-Leu-aldehyde)
effect of 1 h pretreatment on BRD4 degradation induced by 13 (BRD4 in MV4; 11 cells): abolished the BRD4 degradation induced by 13

SMILES: NS(=O)(=O)OC[C@@H]1C[C@@H](n2ccc3c(N[C@H]4CCc5ccccc54)ncnc32)C[C@@H]1O [MLN4924, reference compound]
effect of 1 h pretreatment on BRD4 degradation induced by 13 (BRD4 in MV4; 11 cells): abolished the BRD4 degradation induced by 13

SMILES: O=C1CCC(N2C(=O)c3ccccc3C2=O)C(=O)N1 (stereo not shown) [thalidomide]
racemization half-life [10]: ~5.0 h
racemization half-life [11]: ~2.0 h
